From ChEMBL document CHEMBL5352429, “Designed symmetrical β-hairpin peptides for treating multidrug-resistant salmonella typhimurium infections” (Eur J Med Chem, 2022)
Values after ≈ are worked out from the molar mass of the structure shown. Active and inactive are the calls of the source. The rule behind the calls is not given here. Peptide text beside a SMILES is read from it.

Key:
[1] = tested on: RAW264.7; assay: Inhibition of LPS-stimulated TNF-alpha production in mouse RAW264.7 cells at 1 to 128 ug/ml incubated for 24 hrs by ELISA analysis; format: functional, cell-based; settings: dose 1-128 µg/ml
[2] = Cytotoxicity against mouse RAW264.7 cells infected with Salmonella typhimurium DT104 assessed as cell viability at 1 times of MIC measured at 180 min by MTT assay; format: toxicity, cell-based; settings: RAW264.7 cells infected with Salmonella typhimurium DT104, read-out: Activity
[3] = tested on: Salmonella enterica subsp. enterica serovar Paratyphi B; assay: Antibacterial activity against Salmonella paratyphi B CICC 21495 incubated overnight by standard microtiter dilution method; format: functional
[4] = tested on: Staphylococcus aureus; assay: Antibacterial activity against Staphylococcus aureus ATCC 29213 incubated overnight by standard microtiter dilution method; format: functional
[5] = Antibacterial activity against Salmonella paratyphi C CICC 21512 incubated overnight by standard microtiter dilution method; format: functional, Salmonella enterica subsp. enterica serovar Paratyphi C; settings: Salmonella enterica
[6] = tested on: Salmonella typhimurium; assay: Antibacterial activity against Salmonella typhimurium DT104 in the presence of CaCl2 by MH broth based assay; format: functional, Salmonella enterica subsp. enterica serovar Typhimurium; settings: Salmonella enterica
[7] = tested on: Salmonella paratyphi; assay: Antibacterial activity against Salmonella paratyphi A CICC 21501 incubated overnight by standard microtiter dilution method; format: functional, Salmonella enterica subsp. enterica serovar Paratyphi A; settings: Salmonella enterica
[8] = tested on: Enterococcus faecalis; assay: Antibacterial activity against Enterococcus faecalis ATCC 29212 incubated overnight by standard microtiter dilution method; format: functional
[9] = tested on: Salmonella typhimurium; assay: Antibacterial activity against Salmonella typhimurium DT104 in the presence 50% inactivated mouse serum by MH broth based assay; format: functional, Salmonella enterica subsp. enterica serovar Typhimurium; settings: Salmonella enterica
[10] = tested on: RAW264.7; assay: Inhibition of LPS-stimulated IL-1beta production in mouse RAW264.7 cells at 1 to 128 ug/ml incubated for 24 hrs by ELISA analysis; format: functional, cell-based; settings: dose 1-128 µg/ml
[11] = tested on: Salmonella typhimurium; assay: Antibacterial activity against Salmonella typhimurium DT104 infected in mouse RAW264.7 cells assessed as reduction in bacterial cells at 1 times of MIC measured for 180 mins by MH agar based serial dilution method; format: functional, organism-based; settings: Salmonella enterica subsp. enterica serovar Typhimurium
[12] = Antibacterial activity against Salmonella dublin CICC 21497 incubated overnight by standard microtiter dilution method; format: functional, Salmonella enterica subsp. enterica serovar Dublin; settings: Salmonella enterica
[13] = Antibacterial activity against Salmonella blockley CICC 21489 incubated overnight by standard microtiter dilution method; format: functional, Salmonella enterica subsp. enterica serovar Blockley; settings: Salmonella enterica
[14] = tested on: Salmonella enteritidis; assay: Antibacterial activity against Salmonella enteritidis CICC 21527 incubated overnight by standard microtiter dilution method; format: functional, Salmonella enterica subsp. enterica serovar Enteritidis; settings: Salmonella enterica
[15] = Antibacterial activity against Salmonella enterica subsp. enterica serovar Choleraesuis CICC 21493 incubated overnight by standard microtiter dilution method; format: functional
[16] = tested on: Staphylococcus epidermidis; assay: Antibacterial activity against methicillin-resistant Staphylococcus epidermidis ATCC 12228 incubated overnight by standard microtiter dilution method; format: functional
[17] = tested on: Salmonella typhimurium; assay: Antibacterial activity against Salmonella typhimurium DT104 in the presence of NaCl by MH broth based assay; format: functional, Salmonella enterica subsp. enterica serovar Typhimurium; settings: Salmonella enterica
[18] = tested on: Salmonella typhimurium; assay: Antibacterial activity against Salmonella typhimurium DT104 in the presence of KCl by MH broth based assay; format: functional, Salmonella enterica subsp. enterica serovar Typhimurium; settings: Salmonella enterica
[19] = tested on: Erythrocyte; assay: Hemolytic activity in human Red blood cells assessed as hemolysis incubated for 1 hrs by absorbance based microplate reader analysis; format: toxicity, cell-based
[20] = tested on: Salmonella typhimurium; assay: Antibacterial activity against Salmonella typhimurium DT104 in the presence of MgCl2 by MH broth based assay; format: functional, Salmonella enterica subsp. enterica serovar Typhimurium; settings: Salmonella enterica
[21] = tested on: RAW264.7; assay: Inhibition of LPS-stimulated NO production in mouse RAW264.7 cells incubated for 24 hrs by Griess reagent based analysis; format: functional, cell-based; settings: dose 1-128 µg/ml
[22] = Antibacterial activity against Salmonella wandsworth CICC 21504 incubated overnight by standard microtiter dilution method; format: functional, Salmonella enterica subsp. enterica serovar Wandsworth; settings: Salmonella enterica
[23] = tested on: Salmonella typhimurium; assay: Antibacterial activity against Salmonella typhimurium DT104 ATCC 700408 incubated overnight by standard microtiter dilution method; format: functional, Salmonella enterica subsp. enterica serovar Typhimurium; settings: Salmonella enterica
[24] = tested on: Salmonella typhimurium; assay: Antibacterial activity against Salmonella typhimurium DT104 in the presence 25% inactivated mouse serum by MH broth based assay; format: functional, Salmonella enterica subsp. enterica serovar Typhimurium; settings: Salmonella enterica
[25] = tested on: Salmonella typhimurium; assay: Antibacterial activity against Salmonella typhimurium CICC 21913 incubated overnight by standard microtiter dilution method; format: functional, Salmonella enterica subsp. enterica serovar Typhimurium; settings: Salmonella enterica
[26] = tested on: Lipopolysaccharide (LPS); assay: Displacement of BODIPY-TR-cadaverine from Salmonella typhimurium LPS assessed as increase in fluorescence intensity by fluorescence spectrophotometric analysis; settings: Salmonella enterica subsp. enterica serovar Typhimurium; dose 0.25-8 µg/ml
[27] = Antibacterial activity against Salmonella enterica subsp. enterica serovar Choleraesuis ATCC 13312 incubated overnight by standard microtiter dilution method; format: functional
[28] = tested on: Salmonella typhimurium; assay: Antibacterial activity against Salmonella typhimurium CICC 21483 incubated overnight by standard microtiter dilution method; format: functional, Salmonella enterica subsp. enterica serovar Typhimurium; settings: Salmonella enterica
[29] = tested on: Staphylococcus aureus; assay: Antibacterial activity against methicillin-resistant Staphylococcus aureus ATCC 43300 incubated overnight by standard microtiter dilution method; format: functional
[30] = tested on: RAW264.7; assay: Inhibition of LPS-stimulated IL-8 production in mouse RAW264.7 cells at 1 to 128 ug/ml incubated for 24 hrs by ELISA analysis; format: functional, cell-based; settings: dose 1-128 µg/ml
[31] = Hemolytic activity in human Red blood cells assessed as hemolysis at 128 ug/ml incubated for 1 hrs by absorbance based microplate reader analysis relative to control; format: toxicity, cell-based, Erythrocyte; settings: red blood cells (erythrocytes), at 128 µg/mL, read-out: Activity
[32] = tested on: Salmonella typhimurium; assay: Antibacterial activity against Salmonella typhimurium DT104 in the presence of NH4Cl by MH broth based assay; format: functional, Salmonella enterica subsp. enterica serovar Typhimurium; settings: Salmonella enterica
[33] = tested on: Escherichia coli; assay: Antibacterial activity against Escherichia coli O157:H7 CICC 21530 incubated overnight by standard microtiter dilution method; format: functional
[34] = tested on: Salmonella typhimurium; assay: Antibacterial activity against multi-drug resistant Salmonella typhimurium DT104 assessed as inhibition of bacterial growth measured upto 120 mins by MH agar based serial dilution method; format: functional, organism-based; settings: Salmonella enterica subsp. enterica serovar Typhimurium
[35] = tested on: Cell membrane; assay: Induction of cytoplasmic membrane depolarization in Salmonella typhimurium DT104 assessed as increase in fluorescence intensity at 2 times of MIC incubated for 15 mins by DiSC3-5 dye based fluorescence method; format: subcellular; settings: Salmonella enterica subsp. enterica serovar Typhimurium
[36] = tested on: Cell membrane; assay: Disruption of membrane integrity in Salmonella typhimurium DT104 assessed as increase in fluorescence intensity at 0.5 to 2 times of MIC incubated for 15 mins by PI staining based flow cytometric analysis; format: subcellular; settings: Salmonella enterica subsp. enterica serovar Typhimurium
[37] = tested on: Salmonella typhimurium; assay: Antibacterial activity against Salmonella typhimurium DT104 in the presence of FeCl3 by MH broth based assay; format: functional, Salmonella enterica subsp. enterica serovar Typhimurium; settings: Salmonella enterica
[38] = tested on: Salmonella typhimurium; assay: Antibacterial activity against multi-drug resistant Salmonella typhimurium DT104 assessed as inhibition of bacterial growth at 0.5 to 2 times of MIC by MH agar based serial dilution method; format: functional, organism-based; settings: Salmonella enterica subsp. enterica serovar Typhimurium, time <= 120.0 min, TDE = time-dependent effect
[39] = tested on: Candida albicans; assay: Antifungal activity against Candida albicans ATCC 10231 incubated overnight by standard microtiter dilution method; format: functional
[40] = Cytotoxicity against mouse RAW264.7 cells assessed as cell viability at 128 ug/ml incubated for 24 hrs by MTT assay; format: toxicity, cell-based; settings: at 128 µg/mL, read-out: Activity

Row | Compound | inhibition [1] | MIC [3] [µg/mL] | MIC [4] [µg/mL] | MIC [5] [µg/mL] | MIC [6] [µg/mL] | MIC [7] [µg/mL] | MIC [8] [µg/mL] | MIC [9] [µg/mL] | inhibition [10] | MIC [12] [µg/mL] | MIC [13] [µg/mL] | MIC [14] [µg/mL] | MIC [15] [µg/mL] | MIC [16] [µg/mL] | MIC [17] [µg/mL] | MIC [18] [µg/mL] | MHC [19] [µg/mL] | MIC [20] [µg/mL] | inhibition [21] | MIC [22] [µg/mL] | also measured
1 | CC(C)C[C@H](NC(=O)[C@H](CCCCN)NC(=O)[C@H](CC(C)C)NC(=O)[C@H](CCCCN)NC(=O)[C@H](CS)NC(=O)CNC(=O)[C@H](CO)NC(=O)[C@H](CCCCN)NC(=O)[C@@H](NC(=O)[C@H](CS)NC(=O)[C@H](CCCCN)NC(=O)[C@H](CC(C)C)NC(=O)[C@H](CCCCN)NC(=O)[C@@H](N)CC(C)C)[C@@H](C)O)C(N)=O (H-LKLKCTKSGCKLKL-NH2) | Active | 2 (≈ 1.28 µM) | 32 (≈ 20.5 µM) | 2 (≈ 1.28 µM) | 64 | 4 (≈ 2.56 µM) | 32 (≈ 20.5 µM) | 64 (≈ 41 µM) | Active | 8 (≈ 5.12 µM) | 32 (≈ 20.5 µM) | 16 (≈ 10.2 µM) | 16 (≈ 10.2 µM) | 8 (≈ 5.12 µM) | 32 | 16 | > 128 | 32 | Dose-Dependent Effect | 16 (≈ 10.2 µM) | viability at 3 h, 1 times of MIC [2]: > 90%; Activity [11]: Active; MIC [23]: 32 µg/mL (≈ 20.5 µM); MIC [24]: 64 µg/mL (≈ 41 µM); MIC [25]: 64 µg/mL (≈ 41 µM); Activity [26]: Dose-Dependent Effect; MIC [27]: 1 µg/mL (≈ 0.64 µM); MIC [28]: 16 µg/mL (≈ 10.2 µM); MIC [29]: 16 µg/mL (≈ 10.2 µM); inhibition [30]: Active; hemolysis at 1 h, 128 ug/ml [31]: < 10%; MIC [32]: 16 µg/mL; MIC [33]: 2 µg/mL (≈ 1.28 µM); Activity [34]: Dose-Dependent Effect; Activity [35]: Active; Activity [36]: Active; MIC [37]: 128 µg/mL; Activity [38]: Tde; MIC [39]: 4 µg/mL (≈ 2.56 µM)
2 | C[C@@H](O)[C@H](NC(=O)[C@H](CS)NC(=O)[C@H](CCCCN)NC(=O)[C@H](Cc1c[nH]c2ccccc12)NC(=O)[C@H](CCCCN)NC(=O)[C@H](Cc1c[nH]c2ccccc12)NC(=O)[C@H](CCCCN)NC(=O)[C@@H](N)Cc1c[nH]c2ccccc12)C(=O)N[C@@H](CCCCN)C(=O)N[C@@H](CO)C(=O)NCC(=O)N[C@@H](CS)C(=O)N[C@@H](CCCCN)C(=O)N[C@@H](Cc1c[nH]c2ccccc12)C(=O)N[C@@H](CCCCN)C(=O)N[C@@H](Cc1c[nH]c2ccccc12)C(=O)N[C@@H](CCCCN)C(=O)N[C@@H](Cc1c[nH]c2ccccc12)C(N)=O (H-WKWKWKCTKSGCKWKWKW-NH2) | Active | 1 (≈ 0.403 µM) | 4 (≈ 1.61 µM) | 4 (≈ 1.61 µM) | > 128 | 4 (≈ 1.61 µM) | 2 (≈ 0.805 µM) | 128 (≈ 51.5 µM) | Active | 8 (≈ 3.22 µM) | > 128 | 16 (≈ 6.44 µM) | 16 (≈ 6.44 µM) | 4 (≈ 1.61 µM) | > 128 | > 128 | 32 | > 128 | Dose-Dependent Effect | 4 (≈ 1.61 µM) | viability at 24 h, 128 ug/ml [40]: 36.6%; MIC [23]: 32 µg/mL (≈ 12.9 µM); MIC [24]: 64 µg/mL (≈ 25.8 µM); MIC [25]: 4 µg/mL (≈ 1.61 µM); Activity [26]: Dose-Dependent Effect; MIC [27]: 0.5 µg/mL (≈ 0.201 µM); MIC [28]: 32 µg/mL (≈ 12.9 µM); MIC [29]: 4 µg/mL (≈ 1.61 µM); inhibition [30]: Active; hemolysis at 1 h, 128 ug/ml [31]: 30.8%; MIC [32]: > 128 µg/mL; MIC [33]: 4 µg/mL (≈ 1.61 µM); Activity [34]: Dose-Dependent Effect; Activity [36]: Active; MIC [37]: > 128 µg/mL; Activity [38]: Tde; MIC [39]: 32 µg/mL (≈ 12.9 µM)
